Key:
rat EP1 receptor = target: T1, rat EP1 receptor (Rattus norvegicus, UniProt P70597); assay: Test to measure receptor antagonistic activity using EP1 receptor-expressing cells (PGE2-induced intracellular Ca change, FLIPR); format: cell-based; conditions: HEK293 cells stably expressing rat EP1 receptor, 100 nM PGE2
T1 construct: expressed in transfected cells
T1 sequence (P70597 1-405): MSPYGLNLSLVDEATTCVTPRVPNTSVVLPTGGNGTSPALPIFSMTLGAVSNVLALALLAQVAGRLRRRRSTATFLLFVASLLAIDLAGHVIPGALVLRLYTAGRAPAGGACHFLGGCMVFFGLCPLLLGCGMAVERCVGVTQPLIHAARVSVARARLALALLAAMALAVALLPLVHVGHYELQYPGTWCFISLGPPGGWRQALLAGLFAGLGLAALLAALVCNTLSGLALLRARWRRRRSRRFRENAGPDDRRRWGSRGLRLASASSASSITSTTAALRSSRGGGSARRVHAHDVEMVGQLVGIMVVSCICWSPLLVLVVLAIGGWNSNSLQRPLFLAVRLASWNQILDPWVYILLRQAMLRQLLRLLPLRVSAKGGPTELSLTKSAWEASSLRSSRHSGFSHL
Protocol: Test Example 1 Test to Measure Receptor Antagonistic Activity Using EP1 Receptor-Expressing Cells
HEK293 cells (American Type Culture Collection) that stably expressed rat EP1 receptor were dispensed onto a 96-well poly-D-lysine-coated plate (product name: BIOCOAT, PDL96W black/clear, by Nippon Becton Dickinson) at 2×10^4 cells/well on the day before the experiment, and incubated overnight at 37° C. under 5% carbon dioxide (CO2) in a culture medium containing 10% fetal bovine serum (FBS) (product name: DMEM, Invitrogen). The culture medium was replaced with a loading buffer (a washing solution containing 4 μM of fluorescent-labeled indicator (product name: Fluo3-AM, Dojindo): Hank's balanced salt solution (HBSS), 20 mM 2-[4-(2-hydroxyethyl)-1-piperazinyl]ethanesulfonic acid (HEPES)-sodium hydroxide (NaOH), 2.5 mM Probenecid, and 0.1% bovine serum albumin (BSA)), and left to stand at room temperature for 3 hours, and the cells were washed using a plate washer (product name: ELx405, Bio-Tek Instruments, Inc.) in which the washing solution had been set up. The compound that had been preliminarily dissolved and diluted in the washing solution was added thereto, and set up in a system for measuring the intracellular calcium (Ca) concentration (product name: FLIPR, Molecular Devices, Inc.). After 5 minutes, PGE2 was added to a final concentration of 100 nM, and the change in intracellular Ca concentration was measured. The difference between a maximum value and a minimum value in the intracellular Ca concentration change was determined, and retained as measurement data. When a response with addition of 100 nM PGE2 was taken as 0% and a response with addition of a buffer was taken as 100%, the concentration causing 50% inhibition was determined as an IC50 value. Further, in the table, Ex represents Example numbers as described later.

CYP3A4 [1] = target: T2, CYP3A4 (Homo sapiens, UniProt P08684); assay: Cytochrome P450 (CYP) 3A4 enzyme inhibition, Inhibition Test I; format: in vitro ADME; conditions: human liver microsomes, probe midazolam; human liver microsome 0.1 mg protein/ml, substrate midazolam, 37° C. 20 minutes; read-out: Inhibitory activity I (%)
T2 construct: human liver microsome (0.1 mg protein/ml); from tissue; host or cells: human liver microsome
T2 sequence (P08684 whole entry): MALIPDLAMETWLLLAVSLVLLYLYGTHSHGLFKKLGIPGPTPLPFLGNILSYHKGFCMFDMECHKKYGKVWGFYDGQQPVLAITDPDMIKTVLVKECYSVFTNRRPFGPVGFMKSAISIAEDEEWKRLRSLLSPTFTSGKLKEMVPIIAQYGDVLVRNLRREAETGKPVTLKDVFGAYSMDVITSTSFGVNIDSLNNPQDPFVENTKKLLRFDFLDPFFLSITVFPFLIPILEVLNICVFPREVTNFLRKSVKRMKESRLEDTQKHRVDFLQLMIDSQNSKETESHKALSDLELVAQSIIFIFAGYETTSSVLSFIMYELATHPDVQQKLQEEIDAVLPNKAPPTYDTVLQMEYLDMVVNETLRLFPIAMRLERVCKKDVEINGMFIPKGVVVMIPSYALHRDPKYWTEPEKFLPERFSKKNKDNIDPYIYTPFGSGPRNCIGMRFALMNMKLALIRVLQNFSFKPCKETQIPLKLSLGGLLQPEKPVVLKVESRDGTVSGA
Protocol: (§1) Test Example 4 Test on Cytochrome P450 (CYP) 3A4 Enzyme Inhibition (Evaluation of Drug Interaction)
(1) Inhibition Test I (Calculation of Inhibitory Activity I)
Using a 96-well plate, a substrate (midazolam), a test compound and human liver microsome (0.1 mg protein/ml) were incubated at 37° C. for 20 minutes in a 100 mM phosphate buffer containing 0.1 mM EDTA and 1 mM NADPH. Then, the reaction was stopped by adding an aqueous solution containing 80% acetonitrile. Thereafter, each sample was analyzed by LC/MS, and the inhibitory activity I was calculated using the following formula. Inhibitory Activity I(%)=100−Vi.I/V0.I×100
Vi,I: Metabolic rate of substrate in the presence of the test compound at a known concentration in the inhibition test I
V0,I: Metabolic rate of substrate in the absence of the test compound in the inhibition test I

CYP3A4 [2] = target: T2, CYP3A4; assay: Cytochrome P450 (CYP) 3A4 enzyme inhibition, Inhibition Test II (preincubation); format: in vitro ADME; conditions: human liver microsomes, pH 7.4, probe midazolam; human liver microsome 0.1 mg protein/ml, 30 minutes preincubation with test compound, then midazolam 20 minutes; read-out: Inhibitory activity II (%)
Protocol: as §1
(2) Inhibition Test II (Calculation of Inhibitory Activity II)
Using a 96-well plate, a test compound and human liver microsome (0.1 mg protein/ml) were incubated at 37° C. for 30 minutes in a total amount of 145 μl of 100 mM phosphate buffer (pH=7.4) containing 0.1 mM EDTA and 1 mM NADPH. Then, midazolam as the substrate was added thereto and incubated at 37° C. for 20 minutes. After the incubation, the reaction was stopped by adding an aqueous solution containing 80% acetonitrile. Thereafter, each sample was analyzed by LC/MS, and the inhibitory activity II was calculated using the following formula. Inhibitory Activity II(%)=100−Vi,II/V0,II/(100-inhibitory activity I(%))×100×100
Vi,II: Metabolic rate of substrate in the presence of the test compound at a known concentration in the inhibition test II
V0,II: Metabolic rate of substrate in the absence of the test compound in the inhibition test II

[3] = Test on metabolic stability in human liver microsome; format: in vitro ADME; conditions: human liver microsomes, pH 7.4; human liver microsome 0.2 mg protein/ml, 37° C. 15 minutes, in vitro clearance by integration plot
Protocol: Test Example 5 Test on Metabolic Stability in Human Liver Microsome
Using a glass test tube, a test compound and human liver microsome (0.2 mg protein/ml) were incubated at 37° C. for 15 minutes in a 100 mM phosphate buffer (pH=7.4) containing 0.1 mM EDTA and 1 mM NADPH. Thereafter, the reaction was stopped by adding an aqueous solution containing 80% acetonitrile. Thereafter, each sample was analyzed by HPLC and the in vitro clearance (CLint) was calculated by an integration plot.

**Q.** For `Cc1csc(S(=O)(=O)N(C[C@H](C)F)c2cc3c(cc2OCc2ccc(C(=O)O)c(F)c2)CCC3)n1` [Example 113], which IC50 (rat EP1 receptor) is on record?
**A.** 0.9 nM

**Q.** Which inhibition at 20 min (CYP3A4 [1]) does the source give for `Cc1cc(OCc2ccc(C(=O)O)cc2)c(N(C[C@@H](C)CF)S(=O)(=O)c2ccccn2)cc1C` [Example 117] here?
**A.** 3%

**Q.** And the inhibition at 20 min (CYP3A4 [2])?
**A.** 5%

**Q.** What about the IC50 (rat EP1 receptor) of the same compound?
**A.** 1.9 nM

**Q.** And the CLint scaled [3]?
**A.** 58 mL/min/kg

**Q.** Which IC50 (rat EP1 receptor) does the source give for `Cc1cc(C(=O)O)ccc1COc1cc2c(cc1N(CC(C)F)S(=O)(=O)c1cc(F)cc(F)c1)CCC2` (stereo not shown) [Example 63] here?
**A.** 0.3 nM

**Q.** Which results are given for `C[C@H](F)CN(c1cc2c(cc1OCc1ccc(C(=O)O)cc1)CCC2)S(=O)(=O)c1cccnc1` [Example 103]?
**A.** inhibition at 20 min (CYP3A4 [1]): 12%; inhibition at 20 min (CYP3A4 [2]): 7%; IC50 (rat EP1 receptor): 0.4 nM; CLint scaled [3]: 228 mL/min/kg

**Q.** For `Cc1csc(S(=O)(=O)N(CC(C)F)c2cc3c(cc2OCc2ccc(C(=O)O)s2)CCC3)n1` (stereo not shown) [Example 80], which IC50 (rat EP1 receptor) is on record?
**A.** 0.85 nM

**Q.** And the CLint scaled [3]?
**A.** 212 mL/min/kg

**Q.** For `C[C@@H](F)CN(c1cc2c(cc1OCc1ccc(C(=O)O)cc1)CCC2)S(=O)(=O)c1ccccn1` [Example 102], which inhibition at 20 min (CYP3A4 [1]) is on record?
**A.** 1%

**Q.** And the inhibition at 20 min (CYP3A4 [2])?
**A.** 0%

**Q.** And the IC50 (rat EP1 receptor)?
**A.** 1.8 nM

**Q.** And the CLint scaled [3]?
**A.** 244 mL/min/kg

**Q.** For `Cc1csc(S(=O)(=O)N(CC(C)F)c2cc3c(cc2OCc2ccc(C(=O)O)cc2C)CCC3)n1` (stereo not shown) [Example 66], which IC50 (rat EP1 receptor) is on record?
**A.** 0.53 nM

**Q.** Which IC50 (rat EP1 receptor) does the source give for `Cc1csc(S(=O)(=O)N(CC(C)F)c2cc(C)c(Cl)cc2OCc2ccc(C(=O)O)cc2)n1` (stereo not shown) [Example 71] here?
**A.** 0.32 nM

**Q.** And the CLint scaled [3]?
**A.** 153 mL/min/kg

From patent US8314240B2, “Sulfonamide compounds or salts thereof” (Astellas Pharma Inc., priority 2008, dated 2012)
